The results in this text go back to patent US11260129B2, “Phosphor-containing drug activator, suspension thereof, system containing the suspension, and methods for use” (IMMUNOLIGHT, LLC, priority 2016, dated 2022).

Assay [1] concerns 4T1-HER2 cells. The assay is described as follows: Cell viability by Guava flow cytometry (FIG. 13A). The assay is classed as cell-based, murine. The settings on record: UVADEX alone, 1 Gy 80 kVp; p=0.97. How it is done: In-vitro studies were conducted on plated cells following standard procedures. Cells were maintained in RPMI-1640 supplemented with 10% fetal bovine serum and L-glutamine from GIBCO (Grand Island, N.Y.) growing in a humidified atmosphere of 5% CO2. After incubation, cells were trypsinized and plated evenly onto twelve 12-well plates for 24 hours. About 20 minutes prior to irradiation, the 12 wells of each plate were exposed to the following combinations of additives: […] Each plate had 12 wells with three wells for each of the four treatment arms. The plates were then irradiated with x-rays by placing the plate at a known distance from the x-ray source (50 cm). After irradiation, the cells were incubated on the plate for 48 hours prior to performing flow cytometry. For compatibility with 96-well Guava Nexin® assay, the remaining cells were again trypsinized. […] Two primary flow cytometry analyses were used, both determined at 48 hours after treatment. […] The first analysis evaluated was metabolic cell viability (herein referred to as cell viability) calculated from the number of whole cells per well as determined using forward scattering (ESC). […] In FIG. 13A, cell viability after treatment (10 μM 8-MOP equivalent dilution of UVADEX, 50 μg/mL phosphor, 1 Gy of 80 kVp radiation) as determined by Guava flow cytome cytometry is depicted. […]

Assay [2] has as its system 4T1-HER2 cells. Description: Methylene blue staining for cell viability. The assay is classed as cell-based, murine. The note with it: individual components, 1 Gy of 80 kVp x-rays.
Description: A plate having six (6) wells is subjected to treatment. FIG. 11 is a photographic depiction showing of Methylene Blue stain for cell viability post treatment with X-ray, phosphors and UVADEX. One well (#1) is the control. One well (#2) has phosphor coated with EC and DLC (H100). One well (#3) has phosphor coated with EC (but no DLC).
FIGS. 13A-13D illustrates the efficacy of treatment in-vitro in 4T1-HER2 cells, utilizing a regimen of 1/10-diluted UVADEX (with equivalent of 10 uM 8-MOP), 50 μg/mL phosphor 1 Gy of 80 kVp x-rays. […] Two results from two separate plates are shown, each with identical preparations to investigate reproducibility. Three concentrations of phosphor (25, 50, & 100 μg/mL) were tested with the UVADEX concentration fixed at 1/10 dilution (10 uM 8-MOP). […] In FIGS. 13A-13D, the anti-tumor effects of the treatment and its individual components on 4T1-HER2 cells. […] In FIGS. 13C and 13D, cell viability illustrated by methyl blue staining for identical plates each receiving 1 Gy of 80 kVp x-rays is depicted. […]
Assay [3] relates to 4T1-HER2 cells. The assay is described as follows: Annexin V positivity by flow cytometry (FIGS. 13B, 15, 16). Format: cell-based, murine. The settings on record: UVADEX alone, with or without x-ray (p 0.90 and 0.09). As to the method:
In-vitro studies were conducted on plated cells following standard procedures. Cells were maintained in RPMI-1640 supplemented with 10% fetal bovine serum and L-glutamine from GIBCO (Grand Island, N.Y.) growing in a humidified atmosphere of 5% CO2. After incubation, cells were trypsinized and plated evenly onto twelve 12-well plates for 24 hours. About 20 minutes prior to irradiation, the 12 wells of each plate were exposed to the following combinations of additives: […] Each plate had 12 wells with three wells for each of the four treatment arms. The plates were then irradiated with x-rays by placing the plate at a known distance from the x-ray source (50 cm). After irradiation, the cells were incubated on the plate for 48 hours prior to performing flow cytometry. […] (after the 48 hour incubation) and plated onto the 96-well plate, Two primary flow cytometry analyses were used, both determined at 48 hours after treatment. […] The first analysis evaluated was metabolic cell viability (herein referred to as cell viability) calculated from the number of whole cells per well as determined using forward scattering (ESC). […] In FIG. 13A, cell viability after treatment (10 μM 8-MOP equivalent dilution of UVADEX, 50 μg/mL phosphor, 1 Gy of 80 kVp radiation) as determined by Guava flow cytome cytometry is depicted. […]

For the next assay, the system named is 4T1. Description: Cell-Titer-Glo Luminescence Cell Viability Assay, UV activated psoralen (FIG. 14A). The assay is classed as cell-based, murine. The note with it: psoralen 40 μM; UV light 0, 0.25, 0.5, 1.0 J/cm2; N=4. From the text:
(§1) Other assays were used to provide independent complimentary information on cell viability, e.g. Methylene blue staining and ATP-induced Luminescence imaging (Cell-Titer-Glo® Luminescence Cell Viability Assay). The luminescence imaging permitted investigation of the cytotoxicity of psoralen activated directly with a UV lamp, and in the absence of phosphors and x-ray radiation.
(§2) FIG. 14B presents data on CT2A malignant glioma cells, for a range of treatment parameters including variable x-ray dose (0, 0.67 and 1 Gy). phosphor concentration (50 or 100 μg) and psoralen concentration (8-MOP) at 10, 20 and 40 μM respectively. […] N=4 for each cell line at each UV light condition (0, 0.25, 0.5, 1.0 J/cm2). The psoralen concentration was 40 μM. For FIG. 14B, in CT2A cells, the treatment cytotoxicity increases with X-ray dose (0, 0.67 and 1.00 Gy respectively), concentration of 8-MOP psoralen (10, 20 and 40 μM respectively), and phosphor (50 and 100 μg/ml) respectively (p values shown thereon).

The test system of a further assay is KP-B (sarcoma). The assay is described as above. The assay is classed as cell-based, murine. The settings on record: psoralen 40 μM; UV light 0, 0.25, 0.5, 1.0 J/cm2; N=4.
Excerpt: as §1, §2

Assay [4] relates to CT2A (murine malignant glioma). The description is as above. The note with it: psoralen 40 μM; UV light 0, 0.25, 0.5, 1.0 J/cm2; N=4. Format: cell-based.
Excerpt: as §1, §2

On to `COc1c2occc2cc2ccc(=O)oc12` [UVADEX, 8-methoxypsoralen], for which the “effect of addition of radiation on cell viability” value with 4T1-HER2 cells [1] is listed as “no significant effect”. Moreover, the “effect in methyl blue staining (FIGS. 13C, 13D)” value in the assay with 4T1-HER2 cells [2] is reported as “little effect”. Moreover, the “apoptotic activity (Annexin V)” value with 4T1-HER2 cells [3] is “negligible apoptotic activity”.

As to `O=c1ccc2cc3ccoc3cc2o1` [psoralen], the viable cells result (in the assay with 4T1; with KP-B (sarcoma); in assay [4]) was “reduce viable cells” each time.
